{"source": "paper PMC7169394", "about": "“Binding Constants of Substituted Benzoic Acids with Bovine Serum Albumin” (Pharmaceuticals, 2020)", "key": {"[1]": {"target": "bovine serum albumin (BSA) (Bos taurus, UniProt P02769)", "sequence (P02769 25-607)": "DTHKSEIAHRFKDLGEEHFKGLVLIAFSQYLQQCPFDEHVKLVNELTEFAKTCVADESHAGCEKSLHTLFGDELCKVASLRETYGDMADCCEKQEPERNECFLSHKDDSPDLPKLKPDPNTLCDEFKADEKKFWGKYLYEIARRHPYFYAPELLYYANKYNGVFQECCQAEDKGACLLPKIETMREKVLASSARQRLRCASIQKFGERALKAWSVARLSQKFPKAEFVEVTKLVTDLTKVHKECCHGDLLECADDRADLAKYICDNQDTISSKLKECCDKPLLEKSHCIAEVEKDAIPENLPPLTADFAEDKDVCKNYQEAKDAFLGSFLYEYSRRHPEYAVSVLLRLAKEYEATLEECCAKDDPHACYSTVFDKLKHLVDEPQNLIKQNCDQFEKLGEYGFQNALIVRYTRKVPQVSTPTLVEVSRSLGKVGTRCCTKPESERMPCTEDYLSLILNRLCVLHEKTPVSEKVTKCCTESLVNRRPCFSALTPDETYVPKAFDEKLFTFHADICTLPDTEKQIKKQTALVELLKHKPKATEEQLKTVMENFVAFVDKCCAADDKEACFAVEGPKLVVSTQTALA", "experiment": "biochemical", "format": "binding"}, "BSA [2]": {"test_system": "BSA", "settings": "UC, cited from earlier work"}, "BSA [3]": {"test_system": "BSA", "set-up": "method as in PMID 5677620", "settings": "SP, 310 K; cited from earlier work"}, "BSA [4]": {"test_system": "BSA", "set-up": "method as in PMID 27098963", "settings": "ED, 310 K; cited from earlier work"}, "[5]": {"test_system": "human serum albumin (HSA)", "settings": "SF, 298 K; cited from earlier work"}, "BSA [6]": {"test_system": "BSA", "settings": "SF, 298 K; cited from earlier work"}, "[7]": {"test_system": "human serum albumin (HSA)", "set-up": "method as in PMID 3664856", "settings": "UC, 288 K; cited from earlier work"}, "BSA [8]": {"test_system": "BSA", "settings": "CE, 298 K; cited from earlier work"}, "[9]": {"settings": "298 K, phosphate buffer pH 7.4, 0.05 M, BSA about 1 µM, 1:1 model, standard state 1 M, […], read-out: K∙10^−4 (binding constant with BSA, final corrected value) (converted)"}, "[10]": {"settings": "298 K, phosphate buffer pH 7.4, 0.05 M, BSA about 1 µM, 1:1 model, standard state 1 M, value is K multiplied by 10^−4, read-out: K∙10^−4 (binding constant with BSA, final corrected value) (converted)"}}, "note": "Like-named read-outs stand apart in the source and are kept apart here.", "data": [{"smiles": "O=C(O)c1cccc([N+](=O)[O-])c1", "note": "[3-nitrobenzoic acid]", "values": [{"measurement": "Kd", "setting": "[1]; [9]", "result": 12.8, "unit": "µM"}]}, {"smiles": "N#Cc1cccc(C(=O)O)c1", "note": "[3-cyanobenzoic acid]", "values": [{"measurement": "Kd", "setting": "[1]", "result": 25.6, "unit": "µM"}]}, {"smiles": "O=C(O)c1cccc(Br)c1", "note": "[3-bromobenzoic acid]", "values": [{"measurement": "K·10^−4 BSA", "setting": "BSA [2]; 310 K", "result": "63.1 (UC, 310 K) [9]"}, {"measurement": "Kd", "setting": "[1]; [10]", "result": 28.6, "unit": "µM"}]}, {"smiles": "O=C(O)c1cccc(I)c1", "note": "[3-iodobenzoic acid]", "values": [{"measurement": "Kd", "setting": "[1]; [10]", "result": 19.6, "unit": "µM"}]}, {"smiles": "Nc1cccc(C(=O)O)c1", "note": "[3-aminobenzoic acid]", "values": [{"measurement": "K·10^−4 BSA", "setting": "BSA [3]", "result": "0.32 (SP, 310 K) [9]"}, {"measurement": "Kd", "setting": "[1]", "result": 71.4, "unit": "µM"}]}, {"smiles": "O=C(O)c1ccccc1F", "note": "[2-fluorobenzoic acid]", "values": [{"measurement": "Kd", "setting": "[1]; [9]", "result": 30.3, "unit": "µM"}]}, {"smiles": "O=C(O)c1cccc(Cl)c1", "note": "[3-chlorobenzoic acid]", "values": [{"measurement": "K·10^−4 BSA", "setting": "BSA [4]", "result": "11.22 (ED, 310 K) [24]"}, {"measurement": "Kd", "setting": "[1]", "result": 17.2, "unit": "µM"}]}, {"smiles": "O=C(O)c1ccc(O)cc1O", "note": "[2,4-dihydroxybenzoic acid]", "values": [{"measurement": "K·10^−4 HSA", "setting": "[5]", "result": "0.16 (SF) [10]"}, {"measurement": "K·10^−4 BSA", "setting": "BSA [6]", "result": "<0.1 (SF) [11]"}, {"measurement": "Kd", "setting": "[1]", "result": 32.3, "unit": "µM"}]}, {"smiles": "N#Cc1ccc(C(=O)O)cc1", "note": "[4-cyanobenzoic acid]", "values": [{"measurement": "K·10^−4 BSA", "setting": "BSA [2]; 288 K", "result": "1.66 (UC, 288 K) [8]"}]}, {"smiles": "O=C(O)c1ccc(O)cc1", "note": "[4-hydroxybenzoic acid]", "values": [{"measurement": "K·10^−4 HSA", "setting": "[5]", "result": "< 0.1"}, {"measurement": "K·10^−4 BSA", "setting": "BSA [3]", "result": 0.79}, {"measurement": "K·10^−4 BSA", "setting": "BSA [2]; 288 K", "result": 0.68}, {"measurement": "K·10^−4 BSA", "setting": "BSA [6]", "result": "< 0.1"}, {"measurement": "K·10^−4 HSA", "setting": "[7]", "result": 0.45}, {"measurement": "Kd", "setting": "[1]", "result": "100 ± 10", "unit": "µM"}]}, {"smiles": "O=C(O)c1ccc(I)cc1", "note": "[4-iodobenzoic acid]", "values": [{"measurement": "Kd", "setting": "[1]; [10]", "result": 24.4, "unit": "µM"}]}, {"smiles": "O=C(O)c1ccccc1I", "note": "[2-iodobenzoic acid]", "values": [{"measurement": "Kd", "setting": "[1]; [10]", "result": 30.3, "unit": "µM"}]}, {"smiles": "O=C(O)c1ccc(Br)cc1", "note": "[4-bromobenzoic acid]", "values": [{"measurement": "K·10^−4 BSA", "setting": "BSA [2]; 310 K", "result": 20.0}, {"measurement": "K·10^−4 BSA", "setting": "BSA [4]", "result": 20.42}, {"measurement": "Kd", "setting": "[1]; [10]", "result": 18.5, "unit": "µM"}]}, {"smiles": "O=C(O)c1cccc(O)c1", "note": "[3-hydroxybenzoic acid]", "values": [{"measurement": "K·10^−4 HSA", "setting": "[5]", "result": "0.34 (SF) [10]"}, {"measurement": "K·10^−4 BSA", "setting": "BSA [3]", "result": 5.01}, {"measurement": "K·10^−4 BSA", "setting": "BSA [6]", "result": 0.85}, {"measurement": "Kd", "setting": "[1]", "result": 52.6, "unit": "µM"}]}, {"smiles": "O=C(O)c1ccccc1[N+](=O)[O-]", "note": "[2-nitrobenzoic acid]", "values": [{"measurement": "Kd", "setting": "[1]", "result": 47.6, "unit": "µM"}]}, {"smiles": "N#Cc1ccccc1C(=O)O", "note": "[2-cyanobenzoic acid]", "values": [{"measurement": "Kd", "setting": "[1]", "result": 38.5, "unit": "µM"}]}, {"smiles": "O=C(O)c1ccccc1Br", "note": "[2-bromobenzoic acid]", "values": [{"measurement": "K·10^−4 BSA", "setting": "BSA [2]; 310 K", "result": "3.98 (UC, 310 K) [9]"}, {"measurement": "Kd", "setting": "[1]", "result": 43.5, "unit": "µM"}]}, {"smiles": "O=C(O)c1ccccc1", "note": "[benzoic acid]", "values": [{"measurement": "K·10^−4 BSA", "setting": "BSA [3]", "result": 5.01}, {"measurement": "K·10^−4 BSA", "setting": "BSA [2]; 288 K", "result": 2.24}, {"measurement": "K·10^−4 BSA", "setting": "BSA [4]", "result": 1.15}, {"measurement": "K·10^−4 HSA", "setting": "[7]", "result": "2.29 (UC, 288 K) [8]"}, {"measurement": "Kd", "setting": "[1]", "result": 52.6, "unit": "µM"}]}, {"smiles": "Cc1ccc(C(=O)O)cc1", "note": "[4-methylbenzoic acid]", "values": [{"measurement": "K·10^−4 HSA", "setting": "[5]", "result": 0.35}, {"measurement": "K·10^−4 BSA", "setting": "BSA [3]", "result": 7.94}, {"measurement": "K·10^−4 BSA", "setting": "BSA [2]; 288 K", "result": 6.76}, {"measurement": "K·10^−4 BSA", "setting": "BSA [6]", "result": "< 0.1"}, {"measurement": "K·10^−4 BSA", "setting": "BSA [4]", "result": 3.16}, {"measurement": "K·10^−4 HSA", "setting": "[7]", "result": 3.63}, {"measurement": "Kd", "setting": "[1]", "result": 71.4, "unit": "µM"}]}, {"smiles": "O=C(O)c1ccccc1O", "note": "[2-hydroxybenzoic acid]", "values": [{"measurement": "K·10^−4 HSA", "setting": "[5]", "result": 190}, {"measurement": "K·10^−4 BSA", "setting": "BSA [3]", "result": 10.0}, {"measurement": "K·10^−4 BSA", "setting": "BSA [8]", "result": 3.92}, {"measurement": "K·10^−4 BSA", "setting": "BSA [6]", "result": 7.38}]}, {"smiles": "O=C(O)c1ccc([N+](=O)[O-])cc1", "note": "[4-nitrobenzoic acid]", "values": [{"measurement": "K·10^−4 BSA", "setting": "BSA [2]; 288 K", "result": 6.03}, {"measurement": "K·10^−4 BSA", "setting": "BSA [4]", "result": 3.09}, {"measurement": "K·10^−4 HSA", "setting": "[7]", "result": "8.13 (UC, 288 K) [8]"}, {"measurement": "Kd", "setting": "[1]", "result": 12.3, "unit": "µM"}]}, {"smiles": "Nc1ccccc1C(=O)O", "note": "[2-aminobenzoic acid]", "values": [{"measurement": "K·10^−4 BSA", "setting": "BSA [3]", "result": "0.63 (SP, 310 K) [9]"}, {"measurement": "Kd", "setting": "[1]; [9]", "result": 43.5, "unit": "µM"}]}]}
